Measurements taken from ChEMBL document CHEMBL1127927, “Cycloheptimidazole based angiotensin II receptor antagonists. 4,5,6,7-tetrahydro-8-carboxymethylidene cycloheptimidazoles” (Bioorg Med Chem Lett, 1994).

Target: T1, Angiotensin II receptor (AT-1) type-1 (Rattus norvegicus, UniProt P29089+P25095)
T1 sequence (P29089 whole entry): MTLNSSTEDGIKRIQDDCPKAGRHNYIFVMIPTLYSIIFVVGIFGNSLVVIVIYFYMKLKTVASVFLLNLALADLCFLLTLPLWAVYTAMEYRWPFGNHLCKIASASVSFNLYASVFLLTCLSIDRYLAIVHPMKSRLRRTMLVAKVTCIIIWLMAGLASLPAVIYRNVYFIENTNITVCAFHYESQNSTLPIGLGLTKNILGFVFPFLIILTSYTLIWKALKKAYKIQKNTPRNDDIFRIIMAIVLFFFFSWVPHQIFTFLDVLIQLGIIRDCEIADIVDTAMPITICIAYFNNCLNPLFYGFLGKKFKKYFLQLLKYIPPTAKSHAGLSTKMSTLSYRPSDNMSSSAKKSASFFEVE
T1 sequence (P25095 whole entry): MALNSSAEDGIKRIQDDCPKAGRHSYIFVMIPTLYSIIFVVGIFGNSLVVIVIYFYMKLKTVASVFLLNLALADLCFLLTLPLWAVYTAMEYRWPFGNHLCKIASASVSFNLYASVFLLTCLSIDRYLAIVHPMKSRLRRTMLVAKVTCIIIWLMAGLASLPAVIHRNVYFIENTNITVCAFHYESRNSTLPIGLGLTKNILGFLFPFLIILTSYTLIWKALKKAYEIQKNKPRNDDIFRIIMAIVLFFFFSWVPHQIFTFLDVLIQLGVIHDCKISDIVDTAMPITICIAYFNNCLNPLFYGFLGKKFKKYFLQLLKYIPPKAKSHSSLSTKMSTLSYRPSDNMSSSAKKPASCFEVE
Assay: Inhibition of binding of [125I]- Sar,Ileu-angiotensin to Angiotensin II receptor, type 1 in the radioligand binding assay using rat liver membrane preparations

IC50: 5.45 nM
SMILES: CCc1nc2c(n1Cc1ccc(-c3ccccc3-c3nn[nH]n3)cc1)/C(=C/C(=O)O)CCCC2
